This is an account of results in patent publication US20150141470A1, “DIAGNOSTIC AND TREATMENT METHODS IN PATIENTS HAVING OR AT RISK OF DEVELOPING RESISTANCE TO CANCER THERAPY” (The Broad Institute, Inc., priority 2012, published 2015).

Molecules are shown by their SMILES.

Holding throughout (format): cell-based
One assay relates to A375. Nature of the assay: PLX4720 and MAPK inhibitor sensitivity of ORF-expressing A375 (secondary screen). Particulars: for effect of ectopic GEF expression on sensitivity to the inhibitor: A375 transfected with GEF ORFS; for sensitivity of A375 to the inhibitor: parental A375 cell line. The method, then:
A375 (1.5×10^3) and SKMEL28 cells (3×10^3) were seeded in 96-well plates for 18 h. ORF-expressing lentivirus was added at a 1:10 dilution in the presence of 8 μg/ml polybrene, and centrifuged at 2250 RPM and 37° C. for 1 h. Following centrifugation, virus-containing media was changed to normal growth media and allowed to incubate for 18 h. Twenty-four hours after infection, DMSO (1:1000) or 10× PLX4720 (in DMSO) was added to a final concentration of 100, 10, 1, 0.1, 0.01, 0.001, 0.0001 or 0.00001 μM. Cell viability was assayed using WST-1 (Roche), per manufacturer recommendation, 4 days after the addition of PLX4720.
Cultured cells were seeded into 96-well plates (3,000 cells per well) for all melanoma cell lines; 1,500 cells were seeded for A375. Twenty-four hours after seeding, serial dilutions of the relevant compound were prepared in DMSO added to cells, yielding final drug concentrations ranging from 100 μM to […], with the final volume of DMSO not exceeding 1%. Cells were incubated for 96 h following addition of drug. Cell viability was measured using the WST1 viability assay (Roche). Viability was calculated as a percentage of control (untreated cells) after background subtraction. A minimum of six replicates were performed for each cell line and drug combination. Data from growth-inhibition assays were modeled using a nonlinear regression curve fit with a sigmoid dose-response. […] Sigmoid-response curves that crossed the 50% inhibition point at or above 10 μM have GI50 values annotated as >10 μM. For single-dose studies, the identical protocol was followed, using a single dose of indicated drug (1 μM unless otherwise noted).

Assay [1] concerns WM266.4. The assay is described as follows: Single-dose cell viability of forskolin-treated cells with MAPK-pathway and HDAC inhibitors. Particulars: sub-lethal doses; Panobinostat 10 nM, Vorinostat 1.5 μM, Entinostat 1.5 μM; 96 hrs. The method, then: Twenty-four hours after seeding, serial dilutions of the relevant compound were prepared in DMSO to 1000× stocks. Drug stocks were then diluted 1:100 into appropriate growth media and added to cells at a dilution of 1:10 (lx final), yielding drug concentrations ranging from 100 μM to 1×10-5 μM, with the final volume of DMSO not exceeding 1%. When indicated, forskolin (10 μM), IBMX (100 μM), dbcAMP (100 μM) were added concurrent with MAPK-pathway inhibitors. Cells were incubated for 96 h following addition of drug. Cell viability was measured using CellTiterGlo viability assay (Promega). Viability was calculated as a percentage of control (DMSO treated cells). A minimum of six replicates were performed for each cell line and drug combination. Data from growth-inhibition assays were modeled using a nonlinear regression curve fit with a sigmoid dose-response. […] For single-dose studies, WM266.4 were seeded at 5,000 cells/well in 96-well, white-walled, clear bottom plates and the identical protocol (above) was followed, using a single dose of indicated drug.

The test system of assay [2] is WM266.4. The assay is described as follows: Immunoblots of MITF, SOX10, acetylated histone H3 and other proteins in melanoma cells. Particulars: for acetylated histone H3: WM266.4, 18 hours; for SOX10 and MITF expression: WM266.4, independent of ERK phosphorylation. The method, then:
(§1) Adherent cells were washed once with ice-cold PBS and lysed passively with 1% NP-40 buffer [150 mM NaCl, 50 mM Tris pH 7.5, 2 mM EDTA pH 8, 25 mM NaF and 1% NP-40] containing 2× protease inhibitors (Roche) and 1× Phosphatase Inhibitor Cocktails I and II (CalBioChem). Lysates were quantified (Bradford assay), normalized, reduced, denatured (95° C.) and resolved by SDS gel electrophoresis on 4-20% Tris/Glycine gels (Invitrogen). […] After incubation with the appropriate secondary antibody (anti-rabbit, anti-mouse or anti-goat IgG, IRDye-linked; 1:15,000 dilution; IRDye 800CW, 1:20,000 IRDye 680LT, LiCOR), proteins were imaged using an Odyssey CLx scanner (LiCOR).
(In western blotting, separated proteins are transferred to a membrane and probed.)

Assay [3] has as its system WM266.4. Nature of the assay: Quantitative RT/PCR of MITF, FOS, NR4A1 and NR4A2 mRNA. Conditions: within 1 hour of treatment, absence of MEK inhibitor. Here is the method: mRNA was extracted from WM266.4 using the RNeasy kit (Qiagen) and homogenized using the Qiashredder kit (Qiagen). Total mRNA was used for subsequent reverse transcription using the SuperScript III First-Strand Synthesis SuperMix (Invitrogen). 5 μl of reverse-transcribed cDNA was used for quantitative PCR using SYBR Green PCR Master Mix and gene-specific primers, in quadruplicate, using an ABI PRISM 7900 Real Time PCR System. Primers used for detection were as follows; NR4A2 forward: 5′-GTTCAGGCGCAGTATGGGTC-3′ (SEQ ID NO: 7); NR4A2 reverse: 5′-AGAGTGGTAACTGTAGCTCTGAG-3′ (SEQ ID NO: 8); NR4A1 forward: 5′-ATG CCC TGT ATC CAA GCC C-3′ (SEQ ID NO: 9); NR4A1 reverse: 5′-GTGTAGCCGTCCATGAAGGT-3′ (SEQ ID NO: 10); DUSP6 forward: 5′-CTG CCG GGC GTT CTA CCT-3′ (SEQ ID NO: 11); DUSP6 reverse: 5′-CCAGCCAAGCAATGTACCAAG-3′ (SEQ ID NO: 12); MITF forward: 5′-TGC CCA GGC ATG AAC ACA C-3′ (SEQ ID NO: 13); MITF reverse: 5′-TGGGAAAAATACACGCTGTGAG-3′ (SEQ ID NO: 14); FOS forward: 5′-CACTCCAAGCGGAGACAGAC-3′ (SEQ ID NO: 15); FOS reverse: 5′-AGGTCATCAGGGATCTTGCAG-3′ (SEQ ID NO: 16); TBP forward: 5′-CCCGAAACGCCGAATATAATCC-3′ (SEQ ID No: 17); TBP reverse: 5′-GACTGTTCTTCACTCTTGGCTC-3′ (SEQ ID NO: 18). Relative expression was determined using the comparative CT method (Applied Biosystems).

Assay [4] relates to WM266.4. Nature of the assay: Western blot of CREB and ERK phosphorylation. Conditions: WM266.4, 1 hr treatment. The method, then: as §1

Turning to `Cn1cnc2c(F)c(Nc3ccc(Br)cc3Cl)c(C(=O)NOCCO)cc21` [AZD6244], in the assay on A375, the “effect of ectopic GEF expression on sensitivity to the inhibitor” value is reported as “decreased sensitivity” and the “sensitivity of A375 to the inhibitor” value is listed as “sensitive”.

Turning to `Nc1ccccc1NC(=O)c1ccc(CNC(=O)OCc2cccnc2)cc1` [Entinostat], the “sensitivity of forskolin-treated cells to MAPK-pathway inhibitors” value in the assay with WM266.4 [1] is “restored sensitivity to MAPK-pathway inhibitors to levels approaching parental cells”.

Take `O=S(=O)(NCCNC/C=C/c1ccc(Br)cc1)c1cccc2cnccc12` [H89]: the “effect on forskolin-mediated rescue of MITF protein expression” value in the assay on WM266.4 [2] (WM266.4, 10 μM H89 pre-treatment) is “largely abrogated”.

Take `Cc1[nH]c2ccccc2c1CCNCc1ccc(/C=C/C(=O)NO)cc1` [Panobinostat]: the “sensitivity of forskolin-treated cells to MAPK-pathway inhibitors” value in the assay on WM266.4 [1] is given as “restored sensitivity to MAPK-pathway inhibitors to levels approaching parental cells”. Besides, in the assay on WM266.4 [2], the “acetylated histone H3” value is given as “increases”; the “SOX10 and MITF expression” value is “reduction”.

`Cc1cnc(Nc2ccc(F)cc2Cl)nc1-c1c[nH]c(C(=O)N[C@H](CO)c2cccc(Cl)c2)c1` [VTX-11E]: in the assay with A375, the “effect of ectopic GEF expression on sensitivity to the inhibitor” value is reported as “decreased sensitivity” and the “sensitivity of A375 to the inhibitor” value was “sensitive”.

With `O=C(CCCCCCC(=O)Nc1ccccc1)NO` [Vorinostat], in the assay on WM266.4 [2], the “acetylated histone H3” value is reported as “increases”; the “SOX10 and MITF expression” value is “reduction”.

Consider `C=C[C@@]1(C)CC(=O)[C@]2(O)[C@@]3(C)[C@@H](O)CCC(C)(C)[C@@H]3[C@H](O)[C@H](OC(C)=O)[C@@]2(C)O1` [forskolin], for which, in the assay with WM266.4 [3], the “increases in mRNA expression of MITF, FOS, NR4A1 and NR4A2” value was 2- to 20 fold. In addition, in the assay on WM266.4 [4], the ERK phosphorylation result is “no effect”.
